Test: Stability study of aqueous solutions (0.250 mg/mL) assayed by HPLC at periodic intervals for 60 days
Format: physicochemical
Details: for Creatinine in solution (HPLC assay): 0.250 mg/mL; for Fraction converted to creatinine: aqueous media; for Prepared substance remaining in solution (HPLC assay): buffer, 0 days, 0.25 mg/mL
Experimental: Creatinol-O-Phospate Solution: A batch of pure water or distilled water is put in a container, adjusted to a prescribed of pH 3 or pH 7 with a normal buffer and buffer salts, and heated to a temperature of 20° to 99° C. To 100 parts by weight of the warm water is added 0.1 to 0.3 parts by weight of the Creatinol-O-Phophate (COP) which is dissolved by stirring. The pH is not particularly limited but is desirably not higher than pH 12 taking the physiological influences of the gastrointestinal tracts into consideration.
They were stored at room temperature (25 C, 77 F), at refrigerator temperature (4 C, 39 F), and at elevated temperature (40 C, 104 F) in glass scintillation vials. These samples were assayed by HPLC at periodic intervals for 60 days and evaluated relative to Standard regression curves of known concentrations of the actives and of creatinine, the primary known degradation product of creatine.

[1] = prepared at pH 3.0, 25° C., 39 Days
[2] = prepared at pH 3.0, 25° C., 60 days
[3] = prepared at pH 3.0, 25° C., INITIAL
[4] = prepared at pH 3.0, 40° C., 39 Days
[5] = prepared at pH 3.0, 40° C., 60 days
[6] = prepared at pH 3.0, 40° C., INITIAL
[7] = prepared at pH 7.0, 40° C., 39 Days
[8] = prepared at pH 7.0, 40° C., 60 days
[9] = prepared at pH 7.0, 40° C., INITIAL

CN(CC(=O)O)C(=N)N.O [Creatine Monohydrate, reference compound]
Creatinine in solution (HPLC assay) (pH 3.0, 25° C., 39 Days): 0.154 mg/mL
Creatinine in solution (HPLC assay) (pH 3.0, 25° C., 3 day): 0.026 mg/mL
Creatinine in solution (HPLC assay) (pH 3.0, 25° C., 10 days): 0.072 mg/ml mg/mL
Creatinine in solution (HPLC assay) (pH 3.0, 25° C., 21 days): 0.111 mg/mL
Creatinine in solution (HPLC assay) (pH 3.0, 25° C., 60 days): 0.167 mg/mL
Creatinine in solution (HPLC assay) (pH 3.0, 25° C., INITIAL): 0.000 mg/mL
Creatinine in solution (HPLC assay) (pH 3.0, 40° C., 39 Days): 0.186 mg/mL
Creatinine in solution (HPLC assay) (pH 3.0, 40° C., 3 day): 0.125 mg/Ml mg/mL
Creatinine in solution (HPLC assay) (pH 3.0, 40° C., 10 days): 0.177 mg/ml mg/mL
Creatinine in solution (HPLC assay) (pH 3.0, 40° C., 21 days): 0.186 mg/mL
Creatinine in solution (HPLC assay) (pH 3.0, 40° C., 60 days): 0.187 mg/mL
Creatinine in solution (HPLC assay) (pH 3.0, 40° C., INITIAL): 0.000 mg/mL
Creatinine in solution (HPLC assay) (pH 7.0, 40° C., 39 Days): 0.068 mg/mL
Creatinine in solution (HPLC assay) (pH 7.0, 40° C., 3 day): 0.008 mg/mL
Creatinine in solution (HPLC assay) (pH 7.0, 40° C., 60 days): 0.101 mg/mL
Creatinine in solution (HPLC assay) (pH 7.0, 40° C., INITIAL): 0.000 mg/mL
Fraction converted to creatinine (39 days, pH 3.0, stored at 40° C.): 74%
Fraction converted to creatinine (39 days, pH 7.0, stored at 40° C.): 28%
Fraction converted to creatinine (pH 3.0, stored at 4° C.): 62%
pH of the solution [1]: 3.4
pH of the solution [2]: 3.4
pH of the solution [3]: 3.0
pH of the solution [4]: 3.4
pH of the solution [5]: 3.4
pH of the solution [6]: 3.0
pH of the solution [7]: 7.4
pH of the solution [8]: 7.4
pH of the solution [9]: 7.0

CN(CCOP(=O)(O)O)C(=N)N [Creatinol-O-Phosphate, Creatinol-O-phosphate]
Stability by increase in creatinine levels over time (FIG. 1, in words): stable and resistant to decomposition
Stability in aqueous solution (in words): stable
Creatinine in solution (HPLC assay) (pH 3.0, 4° C., 39 Days): 0.00 mg/mL
Creatinine in solution (HPLC assay) (pH 3.0, 4° C., 3 day): 0.0 mg/mL
Creatinine in solution (HPLC assay) (pH 3.0, 4° C., 10 days): 0.0 mg/mL
Creatinine in solution (HPLC assay) (pH 3.0, 4° C., 21 days): 0.0 mg/mL
Creatinine in solution (HPLC assay) (pH 3.0, 4° C., 60 days): 0.00 mg/mL
Creatinine in solution (HPLC assay) (pH 3.0, 4° C., INITIAL): 0.0 mg/mL
Creatinine in solution (HPLC assay) (pH 3.0, 25° C., 39 Days): 0.00 mg/mL
Creatinine in solution (HPLC assay) (pH 3.0, 25° C., 3 day): 0.0 mg/mL
Creatinine in solution (HPLC assay) (pH 3.0, 25° C., 10 days): 0.0 mg/mL
Creatinine in solution (HPLC assay) (pH 3.0, 25° C., 21 days): 0.0 mg/mL
Creatinine in solution (HPLC assay) (pH 3.0, 25° C., 60 days): 0.00 mg/mL
Creatinine in solution (HPLC assay) (pH 3.0, 25° C., INITIAL): 0.0 mg/mL
Creatinine in solution (HPLC assay) (pH 3.0, 40° C., 39 Days): 0.00 mg/mL
Creatinine in solution (HPLC assay) (pH 3.0, 40° C., 3 day): 0.0 mg/mL
Creatinine in solution (HPLC assay) (pH 3.0, 40° C., 10 days): 0.0 mg/mL
Creatinine in solution (HPLC assay) (pH 3.0, 40° C., 21 days): 0.0 mg/mL
Creatinine in solution (HPLC assay) (pH 3.0, 40° C., 60 days): 0.00 mg/mL
Creatinine in solution (HPLC assay) (pH 3.0, 40° C., INITIAL): 0.0 mg/mL
Creatinine in solution (HPLC assay) (pH 7.0, 4° C., 39 Days): 0.00 mg/mL
Creatinine in solution (HPLC assay) (pH 7.0, 4° C., 3 day): 0.0 mg/mL
Creatinine in solution (HPLC assay) (pH 7.0, 4° C., 10 days): 0.0 mg/mL
Creatinine in solution (HPLC assay) (pH 7.0, 4° C., 21 days): 0.0 mg/mL
Creatinine in solution (HPLC assay) (pH 7.0, 4° C., 60 days): 0.00 mg/mL
Creatinine in solution (HPLC assay) (pH 7.0, 4° C., INITIAL): 0.0 mg/mL
Creatinine in solution (HPLC assay) (pH 7.0, 25° C., 39 Days): 0.00 mg/mL
Creatinine in solution (HPLC assay) (pH 7.0, 25° C., 3 day): 0.0 mg/mL
Creatinine in solution (HPLC assay) (pH 7.0, 25° C., 10 days): 0.0 mg/mL
Creatinine in solution (HPLC assay) (pH 7.0, 25° C., 21 days): 0.0 mg/mL
Creatinine in solution (HPLC assay) (pH 7.0, 25° C., 60 days): 0.00 mg/mL
Creatinine in solution (HPLC assay) (pH 7.0, 25° C., INITIAL): 0.0 mg/mL
Creatinine in solution (HPLC assay) (pH 7.0, 40° C., 39 Days): 0.00 mg/mL
Creatinine in solution (HPLC assay) (pH 7.0, 40° C., 3 day): 0.0 mg/mL
Creatinine in solution (HPLC assay) (pH 7.0, 40° C., 10 days): 0.0 mg/mL
Creatinine in solution (HPLC assay) (pH 7.0, 40° C., 21 days): 0.0 mg/mL
Creatinine in solution (HPLC assay) (pH 7.0, 40° C., 60 days): 0.00 mg/mL
Creatinine in solution (HPLC assay) (pH 7.0, 40° C., INITIAL): 0.0 mg/mL
Prepared substance remaining in solution (HPLC assay) (pH 3): 0.247 mg/ml mg/mL
Prepared substance remaining in solution (HPLC assay) (pH 7): 0.226 mg/ml mg/mL
pH of the solution (prepared at pH 3.0, 4° C., 39 Days): 3.1
pH of the solution (prepared at pH 3.0, 4° C., 60 days): 3.1
pH of the solution (prepared at pH 3.0, 4° C., INITIAL): 3.0
pH of the solution [1]: 3.1
pH of the solution [2]: 3.1
pH of the solution [3]: 3.0
pH of the solution [4]: 3.0
pH of the solution [5]: 3.0
pH of the solution [6]: 3.0
pH of the solution (prepared at pH 7.0, 4° C., 39 Days): 5.2
pH of the solution (prepared at pH 7.0, 4° C., 60 days): 5.2
pH of the solution (prepared at pH 7.0, 4° C., INITIAL): 7.0
pH of the solution (prepared at pH 7.0, 25° C., 39 Days): 5.3
pH of the solution (prepared at pH 7.0, 25° C., 60 days): 5.3
pH of the solution (prepared at pH 7.0, 25° C., INITIAL): 7.0
pH of the solution [7]: 5.5
pH of the solution [8]: 5.5
pH of the solution [9]: 7.0

— patent US9114150B2, “Stable aqueous compositions comprising bioactive creatine species” (JHO INTELLECTUAL PROPERTY HOLDINGS, LLC, priority 2008, dated 2015)
